The source of these data is ChEMBL document CHEMBL1201862, “PubChem BioAssay data set” (2004).

Test systems include CAKI-1; HOP-92; UACC-62; A498; SF-268; SF-539; MOLT-4; M14; SK-MEL-5; NCI-H23; RPMI-8226; A549; SW-620; OVCAR-4; U-251; HCT-116; NCI-H226; RXF 393; OVCAR-3; HCC 2998.
Assay in all cases: NCI tumour cell line growth inhibition, 48 h

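Cultured in 96-well plates, cells were exposed to test compound for 48 hours across five concentrations. GI50 marks 50% less growth.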 Calls of active or inactive are those of the source. Cut-off read from the data, not from the text of the source: active = GI50 up to about 1.1 µM and inactive = higher.

Regarding `COc1ccc2nc3cc(Cl)ccc3c(NCCCCCC(=O)NC(COc3ccc4ccc5cccnc5c4n3)COc3ccc4ccc5cccnc5c4n3)c2c1`, the GI50 in the test with CAKI-1 was 25.3 µM (inactive); in the test with HOP-92 it was 24.4 µM (inactive); with UACC-62, 21.7 µM (inactive); with A498 it was 17.3 µM (inactive); in the test with SF-268, 17.9 µM (inactive); in the test on SF-539, 16.9 µM (inactive). In addition, the GI50 in the test on MOLT-4 is 0.527 µM (active); with M14, 26.7 µM (inactive); with SK-MEL-5, 16.8 µM (inactive); with NCI-H23, 21.4 µM (inactive); with RPMI-8226, 5.58 µM (inactive); in the test on A549 it was 15.5 µM (inactive). Further, the GI50 in the test on SW-620 was 12 µM (inactive); in the test on OVCAR-4, 30 µM (inactive); with U-251 it was 13.8 µM (inactive); with HCT-116 it was 8.24 µM (inactive); in the test on NCI-H226, 20.8 µM (inactive); in the test on RXF 393, 19.8 µM (inactive). In addition, the GI50 in the test with OVCAR-3 is 28.5 µM (inactive); in the test with HCC 2998 it was 14.9 µM (inactive).
For `CSC1(C)C(=O)Nc2c(OCc3ccccc3)cc([N+](=O)[O-])cc21` (stereo not given), the GI50 was 75.3 µM (inactive) in the test on CAKI-1; 20 µM (inactive) with HOP-92; 19.6 µM (inactive) in the test with UACC-62; 34.2 µM (inactive) in the test with A498; 31.6 µM (inactive) with SF-268; 66.1 µM (inactive) in the test on SF-539. Besides, the GI50 with MOLT-4 was 83.6 µM (inactive); with M14 it was 29.8 µM (inactive); in the test with SK-MEL-5 it was 15.3 µM (inactive); in the test on NCI-H23, 75.9 µM (inactive); in the test on RPMI-8226, 32.2 µM (inactive); in the test with A549, 21.5 µM (inactive). Moreover, the GI50 with SW-620 was 71.6 µM (inactive); in the test with OVCAR-4, > 100 µM (inactive); in the test with U-251, 19.9 µM (inactive); with HCT-116, 85.5 µM (inactive); in the test on NCI-H226, 13.5 µM (inactive); in the test with RXF 393, 51.3 µM (inactive). The GI50 with OVCAR-3 and in the test with HCC 2998 was > 100 µM (inactive) each time.
As to `CC(C)CNc1nc2ncnc(N)c2[nH]1`, the GI50 with CAKI-1 is > 100 µM (inactive); in the test on HOP-92, 56.8 µM (inactive); in the test on UACC-62, > 100 µM (inactive); in the test on A498 it was > 100 µM (inactive); with SF-268, > 100 µM (inactive); in the test on SF-539, > 100 µM (inactive). Moreover, the GI50 in the test with MOLT-4, with M14, in the test on SK-MEL-5, in the test with NCI-H23, with RPMI-8226 and in the test with A549 was > 100 µM (inactive) each time. Also, the GI50 in the test with SW-620, with OVCAR-4, with U-251, in the test on HCT-116, with NCI-H226 and in the test on RXF 393 was > 100 µM (inactive) each time. The GI50 in the test with OVCAR-3 and in the test on HCC 2998 was > 100 µM (inactive) in each case.
In the case of `CSC1(SC)N2Cc3ccccc3N=C2C1(c1ccccc1)c1ccccc1`, the GI50 in the test with CAKI-1 was 11 µM (inactive); with HOP-92 it was 4.12 µM (inactive); in the test on UACC-62, 12.6 µM (inactive); in the test with A498, 15.7 µM (inactive); in the test on SF-268, 21.3 µM (inactive); with SF-539, 12.8 µM (inactive). The GI50 in the test with MOLT-4 was 2.77 µM (inactive); with M14 it was 12.2 µM (inactive); with SK-MEL-5, 11.4 µM (inactive); with NCI-H23 it was 16 µM (inactive); in the test with RPMI-8226 it was 5.38 µM (inactive); in the test with A549 it was 13.8 µM (inactive). Also, the GI50 in the test on SW-620 is 13 µM (inactive); in the test on OVCAR-4, 10.1 µM (inactive); in the test with U-251, 15.1 µM (inactive); in the test on HCT-116, 6.18 µM (inactive); with NCI-H226, > 100 µM (inactive); in the test on RXF 393 it was 9.82 µM (inactive). For the same compound, the GI50 was 6.4 µM (inactive) in the test on OVCAR-3 and 2.6 µM (inactive) with HCC 2998.
